Data from patent US6620831B2, “Indazoles substituted with 1,1-dioxoisothiazolidine useful as inhibitors of cell proliferation” (LG Life Sciences Ltd., priority 2000, dated 2003).
pIC50: −log10 of the molar value.

Target: T1, CDK2/cyclin A (Homo sapiens, UniProt P24941)
T1 construct: made in house; host or cells: insect ('worm') cells co-infected with baculoviruses
Experiment: CDK2 inhibitory activity (CDK2/cyclin A, [gamma-32P] ATP, histon H1 or Rb protein substrate)
Type: biochemical
Conditions: first IC50 column (c1) of Table 1
Text: CDK2 enzyme was obtained from either extract from the worm cell co-infected with baculovirus which expresses a CDK2 gene and baculovirus which expresses a cyclin A gene, or active enzyme purified therefrom. CDK4 was also obtained from either extract from the worm cell co-infected with baculovirus which expresses a CDK4 gene and baculovirus which expresses a cyclin D1 gene. As substrates, histon H1 or Rb protein was used for CDK2, and Rb protein for CDK4. The radioactive activities in substrates were determined by reacting compounds diluted with each concentration with a proper quantity of CDK2/cyclin A or CDK4/cyclin D1 and substrate protein, and [gamma-32P labeled] ATP, and then separating the substrates.
Inhibitory abilities of inhibitors according to the present invention for each enzyme activity were expressed as IC50 values, which were determined in accordance with the method as described above.

SMILES	pIC50
CC(=NO)Nc1n[nH]c2ccc(N3CCCS3(=O)=O)cc12 [Compound 23, N-[5-(1,1-dioxo-1λ^6-isothiazolidin-2-yl)-1H-indazol-3-yl]-N′-hydroxyethaneimidoamide]	> 4.00
Cc1ccccc1CC(=O)Nc1n[nH]c2ccc(N3CCCS3(=O)=O)cc12 [Compound 68, N-[5-(1,1-dioxo-1λ^6-isothiazolidin-2-yl)-1H-indazol-3-yl]-2-(2-methylphenyl)acetamide]	> 7.00
COc1ccc(CC(=O)Nc2n[nH]c3ccc(N4CCCS4(=O)=O)cc23)cc1 [Compound 38, N-[5-(1,1-dioxo-1λ^6-isothiazolidin-2-yl)-1H-indazol-3-yl]-2-(4-methoxyphenyl)acetamide]	> 7.00
O=S1(=O)CCCN1c1ccc2[nH]nc(NC(=S)Cc3ccccc3)c2c1 [Compound 13, N-[5-(1,1-dioxo-1λ^6-isothiazolidin-2-yl)-1H-indazol-3-yl]-2-phenylethanethioamide]	> 5.00
O=C(CN1CCCCC1)Nc1n[nH]c2ccc(N3CCCS3(=O)=O)cc12 [Compound 32, N-[5-(1,1-dioxo-1λ^6-isothiazolidin-2-yl)-1H-indazol-3-yl]-2-(1-piperidinyl)acetamide]	> 5.00
CN1CCN(CC(=O)Nc2n[nH]c3ccc(N4CCCS4(=O)=O)cc23)CC1 [Compound 30, N-[5-(1,1-dioxo-1λ^6-isothiazolidin-2-yl)-1H-indazol-3-yl]-2-(4-methyl-1-piperazinyl)acetamide]	> 5.00
CCOc1ccc(CC(=O)Nc2n[nH]c3ccc(N4CCCS4(=O)=O)cc23)cc1Cl [Compound 74, 2-(3-chloro-4-ethoxyphenyl)-N-[5-(1,1-dioxo-1λ^6-isothiazolidin-2-yl)-1H-indazol-3-yl]acetamide]	> 7.00

Next, values leading:

pIC50	SMILES
> 7.30	O=C(Cc1ccc(-c2ccncc2)cc1)Nc1n[nH]c2ccc(N3CCCS3(=O)=O)cc12 [Compound 33, N-[5-(1,1-dioxo-1λ^6-isothiazolidin-2-yl)-1H-indazol-3-yl]-2-[4-(4-pyridinyl)phenyl]acetamide]
> 7.30	Nc1ccc(CC(=O)Nc2n[nH]c3ccc(N4CCCS4(=O)=O)cc23)cc1 [Compound 7, 2-(4-aminophenyl)-N-[5-(1,1-dioxo-1λ^6-isothiazolidin-2-yl)-1H-indazol-3-yl]acetamide]
> 7.30	O=C(Cn1cnc2ccccc21)Nc1n[nH]c2ccc(N3CCCS3(=O)=O)cc12 [Compound 41, 2-(1H-benzimidazol-1-yl)-N-[5-(1,1-dioxo-1λ^6-isothiazolidin-2-yl)-1H-indazol-3-yl]acetamide]
> 7.30	O=C(Cc1ccc(F)cc1)Nc1n[nH]c2ccc(N3CCCS3(=O)=O)cc12 [Compound 9, N-[5-(1,1-dioxo-1λ^6-isothiazolidin-2-yl)-1H-indazol-3-yl]-2-(4-fluorophenyl)acetamide]
> 7.30	O=C(Cc1cccc([N+](=O)[O-])c1)Nc1n[nH]c2ccc(N3CCCS3(=O)=O)cc12 [Compound 18, N-[5-(1,1-dioxo-1λ^6-isothiazolidin-2-yl)-1H-indazol-3-yl]-2-(3-nitrophenyl)acetamide]
> 7.30	O=C(Cn1cnc(-c2ccccc2)c1)Nc1n[nH]c2ccc(N3CCCS3(=O)=O)cc12 [Compound 47, N-[5-(1,1-dioxo-1λ^6-isothiazolidin-2-yl)-1H-indazol-3-yl]-2-(4-phenyl-1H-imidazol-1-yl)acetamide]
> 7.30	CCN(CC)c1ccc(CC(=O)Nc2n[nH]c3ccc(N4CCCS4(=O)=O)cc23)cc1 [Compound 73, 2-[4-(diethylamino)phenyl]-N-[5-(1,1-dioxo-1λ^6-isothiazolidin-2-yl)-1H-indazol-3-yl]acetamide]
> 7.30	CCOc1ccc(CC(=O)Nc2n[nH]c3ccc(N4CCCS4(=O)=O)cc23)cc1[N+](=O)[O-] [Compound 67, N-[5-(1,1-dioxo-1λ^6-isothiazolidin-2-yl)-1H-indazol-3-yl]-2-(4-ethoxy-3-nitrophenyl)acetamide]
